One assay relates to SR. The assay is described as follows: Antiproliferative activity against ALK positive human SR cells. It is filed as functional, cell-based.
Assay [1] deals with T1, Protein cereblon/ALK tyrosine kinase receptor (Homo sapiens, UniProt Q9UM73+Q96SW2). The assay is described as follows: Protac activity at CRBN/ALK in human SR cells assessed as protein abundance at 5 nM by Western blot analysis (reference value: 1). It is filed as cell-based. (A western blot detects proteins with antibodies after separation by electrophoresis.)
Assay [2] addresses T1, Protein cereblon/ALK tyrosine kinase receptor. The assay is described as follows: Protac activity at CRBN/ALK in human SR cells assessed as protein abundance at 0.05 nM by Western blot analysis (reference value: 1). The class given is cell-based.
Assay [3] has the same target. The assay is described as follows: Protac activity at CRBN/ALK in human SR cells assessed as protein abundance at 0.5 nM by Western blot analysis (reference value: 1). The class given is cell-based.
Assay [4] has the same target. The assay is described as follows: Protac activity at CRBN/ALK in human SR cells assessed as protein abundance at 50 nM by Western blot analysis (reference value: 1). It is filed as cell-based.
The target is the same in assay [5]. Briefly: Protac activity at CRBN/ALK in human SR cells assessed as protein abundance at 500 nM by Western blot analysis (reference value: 1). It is filed as cell-based.
The target in assay [6] is von Hippel-Lindau disease tumor suppressor/ALK tyrosine kinase receptor (Homo sapiens) (UniProt Q9UM73+P40337). The assay is described as follows: Protac activity at VHL1/ALK in human SR cells assessed as increase in ALK degradation at 500 nM by Western blot analysis. The class given is cell-based.
The target of assay [7] is T1, Protein cereblon/ALK tyrosine kinase receptor. The assay is described as follows: Protac activity at CRBN/ALK in human SR cells assessed as increase in ALK degradation at 500 nM by Western blot analysis. The class given is cell-based.

Each structure is given as a SMILES string. Activity calls are given as the source filed them. No cut-off for these calls is given here.

Data on 32 molecules can be found in ChEMBL document CHEMBL4814007, “Structure-based discovery of SIAIS001 as an oral bioavailability ALK degrader constructed from Alectinib” (Eur J Med Chem, 2021).

T1 sequence (Q96SW2 whole entry partner): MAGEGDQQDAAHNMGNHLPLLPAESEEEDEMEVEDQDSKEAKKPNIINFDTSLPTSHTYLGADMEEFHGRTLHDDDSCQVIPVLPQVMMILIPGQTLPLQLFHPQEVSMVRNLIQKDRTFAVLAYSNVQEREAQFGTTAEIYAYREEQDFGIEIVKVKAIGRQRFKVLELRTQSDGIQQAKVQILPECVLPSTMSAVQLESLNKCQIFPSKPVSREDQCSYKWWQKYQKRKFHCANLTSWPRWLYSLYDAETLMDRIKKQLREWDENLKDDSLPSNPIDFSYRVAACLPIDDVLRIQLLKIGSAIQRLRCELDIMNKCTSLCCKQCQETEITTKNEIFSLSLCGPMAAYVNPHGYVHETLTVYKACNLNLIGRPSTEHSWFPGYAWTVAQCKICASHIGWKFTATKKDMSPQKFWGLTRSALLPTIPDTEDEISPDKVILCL
T1 sequence (Q9UM73 19-1620 limits assumed): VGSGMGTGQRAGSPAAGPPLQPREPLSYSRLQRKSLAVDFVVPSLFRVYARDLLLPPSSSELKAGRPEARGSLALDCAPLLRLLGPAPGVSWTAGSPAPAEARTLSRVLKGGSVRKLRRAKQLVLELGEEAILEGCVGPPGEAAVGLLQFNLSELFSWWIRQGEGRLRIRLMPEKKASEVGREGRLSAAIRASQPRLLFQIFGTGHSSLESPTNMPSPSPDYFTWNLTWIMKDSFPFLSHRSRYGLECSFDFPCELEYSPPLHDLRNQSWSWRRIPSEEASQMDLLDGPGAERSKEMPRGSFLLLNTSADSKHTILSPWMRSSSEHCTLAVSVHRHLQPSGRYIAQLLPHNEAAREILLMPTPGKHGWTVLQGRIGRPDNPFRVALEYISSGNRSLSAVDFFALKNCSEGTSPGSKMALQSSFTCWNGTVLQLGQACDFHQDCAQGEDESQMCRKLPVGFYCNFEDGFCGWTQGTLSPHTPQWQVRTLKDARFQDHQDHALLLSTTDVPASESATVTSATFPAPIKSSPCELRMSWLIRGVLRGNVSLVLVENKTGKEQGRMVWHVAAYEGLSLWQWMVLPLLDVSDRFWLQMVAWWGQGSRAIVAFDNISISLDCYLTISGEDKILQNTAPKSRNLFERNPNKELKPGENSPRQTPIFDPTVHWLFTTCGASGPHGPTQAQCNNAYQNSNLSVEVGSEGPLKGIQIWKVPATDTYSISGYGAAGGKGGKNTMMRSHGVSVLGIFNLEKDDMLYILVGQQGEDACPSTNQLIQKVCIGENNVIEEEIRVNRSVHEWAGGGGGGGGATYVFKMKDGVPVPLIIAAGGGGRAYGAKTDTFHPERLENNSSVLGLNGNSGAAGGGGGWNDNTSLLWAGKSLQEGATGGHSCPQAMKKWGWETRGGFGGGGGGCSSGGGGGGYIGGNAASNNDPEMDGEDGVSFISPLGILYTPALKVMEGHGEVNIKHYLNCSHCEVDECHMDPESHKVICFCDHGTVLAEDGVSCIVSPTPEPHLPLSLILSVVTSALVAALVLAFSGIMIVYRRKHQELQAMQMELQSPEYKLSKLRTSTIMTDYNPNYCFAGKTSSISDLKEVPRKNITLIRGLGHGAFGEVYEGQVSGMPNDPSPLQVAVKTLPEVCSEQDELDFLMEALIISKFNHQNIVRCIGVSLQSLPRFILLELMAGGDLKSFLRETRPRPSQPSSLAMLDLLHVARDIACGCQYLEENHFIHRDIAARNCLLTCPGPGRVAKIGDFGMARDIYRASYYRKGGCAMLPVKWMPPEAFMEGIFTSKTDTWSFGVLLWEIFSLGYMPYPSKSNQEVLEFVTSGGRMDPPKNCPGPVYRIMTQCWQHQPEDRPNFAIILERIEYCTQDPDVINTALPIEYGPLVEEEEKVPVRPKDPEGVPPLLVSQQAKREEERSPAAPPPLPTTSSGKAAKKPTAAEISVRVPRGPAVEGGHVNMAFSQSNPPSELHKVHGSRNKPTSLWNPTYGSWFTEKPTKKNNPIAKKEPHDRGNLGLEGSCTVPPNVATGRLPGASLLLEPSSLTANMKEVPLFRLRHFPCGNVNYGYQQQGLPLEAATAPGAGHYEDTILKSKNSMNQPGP
Sequence of von Hippel-Lindau disease tumor suppressor/ALK tyrosine kinase receptor (Homo sapiens) (P40337 whole entry partner): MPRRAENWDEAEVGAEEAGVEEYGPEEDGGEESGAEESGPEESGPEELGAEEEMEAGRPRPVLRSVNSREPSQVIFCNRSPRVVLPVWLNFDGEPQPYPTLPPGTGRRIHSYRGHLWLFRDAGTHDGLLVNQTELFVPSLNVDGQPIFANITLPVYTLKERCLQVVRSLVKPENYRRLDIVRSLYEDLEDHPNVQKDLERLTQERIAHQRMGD
Sequence of von Hippel-Lindau disease tumor suppressor/ALK tyrosine kinase receptor (Homo sapiens) (Q9UM73 19-1620 limits assumed): as the sequence (Q9UM73 19-1620 limits assumed) above

The IC50 is the point on the concentration scale where inhibition reaches its midpoint. The low end stands for greater potency, the high end for weaker potency. In turn, `CCc1cc2c(cc1N1CCN(C(=O)CCCNc3cccc4c3C(=O)N(C3CCC(=O)NC3=O)C4=O)CC1)C(C)(C)c1[nH]c3cc(C#N)ccc3c1C2=O` (stereo unspecified) registered an IC50 in the assay on SR of 9.2 nM. Regarding `CCc1cc2c(cc1N1CCNCC1)C(C)(C)c1[nH]c3cc(C#N)ccc3c1C2=O`, half-maximal inhibition in the assay on SR (IC50) required 0.8 nM. On the same count and under the same terms, with `CCc1cc2c(cc1N1CCC(N3CCN(C(=O)CCCCCNc4cccc5c4C(=O)N(C4CCC(=O)NC4=O)C5=O)CC3)CC1)C(C)(C)c1[nH]c3cc(C#N)ccc3c1C2=O` (stereo unspecified) the figure was 3.4 nM; with `CCc1cc2c(cc1N1CCC(N3CCN(CCCCCCCC#Cc4cccc5c4CN(C4CCC(=O)NC4=O)C5=O)CC3)CC1)C(C)(C)c1[nH]c3cc(C#N)ccc3c1C2=O` (stereo unspecified), 3.3 nM; with `CCc1cc2c(cc1N1CCC(NC(=O)CCCCCNc3cccc4c3C(=O)N(C3CCC(=O)NC3=O)C4=O)CC1)C(C)(C)c1[nH]c3cc(C#N)ccc3c1C2=O` (stereo unspecified), 3.8 nM.

On to `CCc1cc2c(cc1N1CCC(N3CCN(C(=O)CCOCCOCCNc4cccc5c4C(=O)N(C4CCC(=O)NC4=O)C5=O)CC3)CC1)C(C)(C)c1[nH]c3cc(C#N)ccc3c1C2=O` (stereo unspecified), for which the IC50 in the assay on SR was 2.5 nM. Same read-out and setting: for `CCc1cc2c(cc1N1CCC(N3CCN(CCCCC#Cc4cccc5c4CN(C4CCC(=O)NC4=O)C5=O)CC3)CC1)C(C)(C)c1[nH]c3cc(C#N)ccc3c1C2=O` (stereo unspecified) the value was 1.2 nM; for `COc1cc(N2CCC(N3CCN(C)CC3)CC2)ccc1Nc1ncc(Cl)c(Nc2ccccc2P(C)(C)=O)n1` [BRIGATINIB], 1.9 nM.

For the molecule `CCc1cc2c(cc1N1CCC(N3CCN(CCCCCC#Cc4cccc5c4CN(C4CCC(=O)NC4=O)C5=O)CC3)CC1)C(C)(C)c1[nH]c3cc(C#N)ccc3c1C2=O` (stereo unspecified), the concentration for half-maximal inhibition (IC50) in the assay on SR stood at 1.8 nM. Further, the Activity in assay [1] stood at 0.76; in assay [2] it was 1.08; in assay [3], 1.09; in assay [4], 0.67; in assay [5], 0.69. In the assay with SR, `CCc1cc2c(cc1N1CCC(N3CCN(C(=O)CNc4cccc5c4C(=O)N(C4CCC(=O)NC4=O)C5=O)CC3)CC1)C(C)(C)c1[nH]c3cc(C#N)ccc3c1C2=O` (stereo unspecified) came in with a half-inhibitory concentration (IC50) of 4.1 nM. The outcome in assay [6] was Active.

As to `CCc1cc2c(cc1N1CCC(N3CCN(C(=O)CCCCNc4cccc5c4CN(C4CCC(=O)NC4=O)C5=O)CC3)CC1)C(C)(C)c1[nH]c3cc(C#N)ccc3c1C2=O` (stereo unspecified), the IC50 in the assay with SR is 4.7 nM. `CCc1cc2c(cc1N1CCC(N3CCNCC3)CC1)C(C)(C)c1[nH]c3cc(C#N)ccc3c1C2=O` registered a half-maximal inhibitory concentration (IC50) with SR of 4.9 nM. Same read-out and setting: for `Cc1cc(Nc2ncc(Cl)c(Nc3ccccc3S(=O)(=O)C(C)C)n2)c(OC(C)C)cc1C1CCN(C(=O)NCCNC(=O)CNc2cccc3c2C(=O)N(C2CCC(=O)NC2=O)C3=O)CC1` (stereo unspecified) the value was 8.5 nM; for `Cc1cc(Nc2ncc(Cl)c(Nc3ccccc3S(=O)(=O)C(C)C)n2)c(OC(C)C)cc1C1CCNCC1` [CERITINIB], 2.2 nM. Consider `CCc1cc2c(cc1N1CCC(N3CCN(C(=O)CCOCCOCCOCCOCCNc4cccc5c4C(=O)N(C4CCC(=O)NC4=O)C5=O)CC3)CC1)C(C)(C)c1[nH]c3cc(C#N)ccc3c1C2=O` (stereo unspecified), for which, in the assay with SR, the IC50 was found to be 3.1 nM. In addition, the outcome in assay [7] was Active. Besides, the Activity was determined as 0.96 in assay [1]; 1.01 in assay [2]; 1.03 in assay [3]; 0.7 in assay [4]; 0.53 in assay [5]. The molecule `Cc1cc(Nc2ncc(Cl)c(Nc3ccccc3S(=O)(=O)C(C)C)n2)c(OC(C)C)cc1C1CCN(CCOCCOCCNC(=O)CNc2cccc3c2C(=O)N(C2CCC(=O)NC2=O)C3=O)CC1` (stereo unspecified) had a half-inhibitory concentration (IC50) in the assay with SR of 5.9 nM. `CCc1cc2c(cc1N1CCC(N3CCN(C(=O)CCCNc4cccc5c4CN(C4CCC(=O)NC4=O)C5=O)CC3)CC1)C(C)(C)c1[nH]c3cc(C#N)ccc3c1C2=O` (stereo unspecified) showed a half-maximal inhibitory concentration (IC50) with SR of 3.3 nM. This IC50 lies about 1.8-fold lower than the previous one.

As to `Cc1cc(Nc2ncc(Cl)c(Nc3ccccc3S(=O)(=O)C(C)C)n2)c(OC(C)C)cc1C1CCN(C(=O)NCCOCCOCCOCCOCCOCCNC(=O)CNc2cccc3c2C(=O)N(C2CCC(=O)NC2=O)C3=O)CC1` (stereo unspecified), it took 13.8 nM to reach half-maximal inhibition in the assay on SR (IC50). Compared with the last molecule, the IC50 is about 4.2-fold higher.

As to `CCc1cc2c(cc1N1CCC(NC(=O)CCCNc3cccc4c3C(=O)N(C3CCC(=O)NC3=O)C4=O)CC1)C(C)(C)c1[nH]c3cc(C#N)ccc3c1C2=O` (stereo unspecified), the IC50 in the assay with SR was 8.2 nM. Compared with the last molecule, the IC50 is about 1.7-fold lower. `CCc1cc2c(cc1N1CCC(N3CCN(C(=O)CCCNc4cccc5c4C(=O)N(C4CCC(=O)NC4=O)C5=O)CC3)CC1)C(C)(C)c1[nH]c3cc(C#N)ccc3c1C2=O` (stereo unspecified) returned an IC50 with SR of 12.9 nM. In addition, the outcome in assay [7] was Active. The Activity in assay [1] came out at 0.66; in assay [2] it was 1.05; in assay [3], 0.82; in assay [4], 0.55; in assay [5], 0.47. Molecule `CCc1cc2c(cc1N1CCC(N)CC1)C(C)(C)c1[nH]c3cc(C#N)ccc3c1C2=O` came in with an IC50 with SR of 2.8 nM. On the same count and under the same terms, with `CCc1cc2c(cc1N1CCC(NC(=O)CNc3cccc4c3C(=O)N(C3CCC(=O)NC3=O)C4=O)CC1)C(C)(C)c1[nH]c3cc(C#N)ccc3c1C2=O` (stereo unspecified) the figure was 13.5 nM. Regarding `CCc1cc2c(cc1N1CCC(NC(=O)CCOCCOCCNc3cccc4c3C(=O)N(C3CCC(=O)NC3=O)C4=O)CC1)C(C)(C)c1[nH]c3cc(C#N)ccc3c1C2=O` (stereo unspecified), it took 12 nM to reach half-maximal inhibition in the assay with SR (IC50). This IC50 and that of the molecule before are within 1.5-fold of each other.

As to `CCc1cc2c(cc1N1CCN(C(=O)CCOCCOCCOCCOCCNc3cccc4c3C(=O)N(C3CCC(=O)NC3=O)C4=O)CC1)C(C)(C)c1[nH]c3cc(C#N)ccc3c1C2=O` (stereo unspecified), in the assay with SR, inhibition was half-maximal at 11.9 nM (IC50). In the assay with SR, `COc1cc(N2CCC(NC(=O)CCCCCCCCCC(=O)N[C@@H](C(=O)N3C[C@H](O)C[C@H]3C(=O)NCc3ccc(-c4scnc4C)cc3)C(C)(C)C)CC2)ccc1Nc1ncc(Cl)c(Nc2ccccc2P(C)(C)=O)n1` returned an IC50 of 1.1 nM. Same read-out and setting: for `CCc1cc2c(cc1N1CCN(C(=O)CCOCCOCCNc3cccc4c3C(=O)N(C3CCC(=O)NC3=O)C4=O)CC1)C(C)(C)c1[nH]c3cc(C#N)ccc3c1C2=O` (stereo unspecified) the value was 30.8 nM; for `CCc1cc2c(cc1N1CCC(N3CCN(C(=O)CCCCCCNc4cccc5c4CN(C4CCC(=O)NC4=O)C5=O)CC3)CC1)C(C)(C)c1[nH]c3cc(C#N)ccc3c1C2=O` (stereo unspecified), 9.2 nM.

`CCc1cc2c(cc1N1CCC(NC(=O)CCOCCOCCOCCOCCNc3cccc4c3C(=O)N(C3CCC(=O)NC3=O)C4=O)CC1)C(C)(C)c1[nH]c3cc(C#N)ccc3c1C2=O` (stereo unspecified) showed a concentration for half-maximal inhibition (IC50) with SR of 5.9 nM. In the assay with SR, `CCc1cc2c(cc1N1CCC(N3CCN(CCCCCCC#Cc4cccc5c4CN(C4CCC(=O)NC4=O)C5=O)CC3)CC1)C(C)(C)c1[nH]c3cc(C#N)ccc3c1C2=O` (stereo unspecified) gave an IC50 of 1.6 nM. In the assay on SR, `CCc1cc2c(cc1N1CCC(N3CCN(C(=O)CCCCCNc4cccc5c4CN(C4CCC(=O)NC4=O)C5=O)CC3)CC1)C(C)(C)c1[nH]c3cc(C#N)ccc3c1C2=O` (stereo unspecified) displayed a concentration for half-maximal inhibition (IC50) of 4 nM. `CCc1cc2c(cc1N1CCN(C(=O)CCCCCNc3cccc4c3C(=O)N(C3CCC(=O)NC3=O)C4=O)CC1)C(C)(C)c1[nH]c3cc(C#N)ccc3c1C2=O` (stereo unspecified) returned an IC50 with SR of 15.1 nM. With `CCc1cc2c(cc1N1CCN(C(=O)CNc3cccc4c3C(=O)N(C3CCC(=O)NC3=O)C4=O)CC1)C(C)(C)c1[nH]c3cc(C#N)ccc3c1C2=O` (stereo unspecified), 3.2 nM corresponded to half-maximal inhibition in the assay on SR (IC50). Besides, the result in assay [7] was Active. The Activity in assay [1] turned out to be 0.89; in assay [2], 1.17; in assay [3], 1.12; in assay [4], 0.66; in assay [5], 0.43.
